Measured values published in paper PMC8491704, “Pharmacokinetic study of Tangwang Mingmu granule for the management of diabetic retinopathy based on network pharmacology” (Pharmaceutical Biology, 2021).
Where two headings read alike, the source gives them in different places.

Columns and labels:
[1] = Pharmacokinetic study in SD rats after oral administration of TWMM (UPLC-QQQ-MS of plasma); format: in vivo, Sprague-Dawley (SD) rats; settings: oral TWMM 9.6 g/kg; for AUC(0-t): n = 6, read-out: AUC (0–36); for Cmax: n = 6, read-out: Cmax; for MRT last: n = 6, read-out: MRT (0–36); for MRT inf: n = 6, read-out: MRT (0–∞); for AUC(0-inf): read-out: areas under the concentration-time curve (AUC0–∞)
Protocol: Chromatographic separation was performed using an ACQUITY UPLC H-Class system equipped with a 1.8 μm HSS T3 analytical column (100 mm × 2.1 i.d., Waters Corporation, Milford, USA). […] ESI source was set to negative ionisation mode while the analysis was performed using multiple reaction monitorin. Ion spray voltage (3000 V), capillary temperature (450 °C), and the source parameters of the nine compounds are shown in Table 2.
The data obtained from the UPLC/Q-Orbitrap MS was imported into Xcalibur 4.0 software for analysis. Furthermore, the constituents acquired using GCMS-QP 2010 were profiled by comparison using the National Institute of Standards and Technology (NIST) database. The pharmacokinetic data were processed through MassLynx 4.1, and DAS 2.0 software was used to calculate the pharmacokinetic parameters according to the compartment model.
Six male SD rats (average weight: 220 ± 10 g) were acquired from Beijing Vital-River Laboratory Animal Technology Co., Ltd. All rats were acclimatized to an environmentally controlled laboratory for a week. Following this period, the rats were exposed to fasting conditions for 12 h but were allowed free access to water before the experiment. The rats were orally administered TWMM at a dose of 9.6 g/kg. Blood samples (300 µL) were collected into heparinized centrifuge tubes from the fossa orbitalis at pre-dose and 0.03, 0.08, 0.17, 0.25, 0.5, 1, 2, 4, 8, 12, 24, and 36 h intervals. The samples were immediately centrifuged at 6000 g for 10 min at 4 °C and the supernatants were transferred to clean centrifuge tubes.
Each 100 µL plasma sample was mixed with 20 µL of methanol, 20 µL of IS (5 µg/mL), and 600 µL acetonitrile. The mixtures were centrifuged at 15,000 g for 10 min at 4 °C after being vortexed for 3 min. The obtained supernatants were transferred to clean 1.5 mL centrifuge tubes, followed by evaporation under a milt nitrogen stream. Next, the obtained residues were individually redissolved in 100 µL of methanol and centrifuged at 15,000 g for 10 min at 4 °C after vortexed for 3 min. Lastly, 10 µL of individual supernatant was injected for analysis.

[2] = Stability of QC samples of 8 compounds in rat plasma (25 °C 4 h, autosampler 12 h, three freeze-thaw cycles, −80 °C 7 d); format: in vitro ADME; settings: rat, plasma; for Stability in rat plasma, Long term (7 day, –80 °C), Measured: 168 h
Protocol: The calibration curves were assessed at eight concentration levels using the correlation coefficient (r). The lower limit of quantification (LLOQ) could fulfil the analytical requirements and achieved reliable accuracy and precision with a signal-to-noise ratio (S/N) ≥ 10. To determine intra- and inter-day precision and accuracy, six replicate quality control (QC) samples at three concentrations were prepared. Inter- and intra-day precision was evaluated by determining relative standard deviation (RSD) values, while accuracy was expressed in terms of the relative error (RE). The extraction recoveries were determined using three concentration levels and calculated by comparing the peak area of extracted samples with post-extracted spiked samples. Subsequently, matrix effects were assessed using the peak area of post-extracted spiked samples contrasted with QC samples at the three concentration levels. The stability test of QC samples at the three concentration levels was as follows: storage at 25 °C for 4 h, storage in an autosampler for 12 h, freeze-thaw cycle for three times, and storage at −80 °C for 7 d.
The stability tests were carried out under three freeze-thaw cycles, at 25 °C for 4 h, in an autosampler for 12 h, and at −80 °C for 7 d.

HUVEC cells = test: Assay of intracellular reactive oxygen species (ROS), DCFH-DA, high glucose; format: cell-based, human; settings: luteolin 20, 10, 5 µM or formononetin 40, 20, 10 µM for 2 h, then high glucose 24 h
Protocol: The generation of ROS was detected using dichloro-dihydro-fluorescein diacetate (DCFH-DA, reactive oxygen species assay kit, Solarbio, Beijing) as per manufacturer instructions. In this study, we seeded HUVEC cells in a 96-well plate at 7 × 10^3 per well. […] DCF fluorescence was assessed at F488/525 nm by using a bioassay multi-detection fluorescent plate reader (Tecan Spark, Switzerland).

[3] = set-up: method as in Guan et al. 2014; Cheruvu et al. 2018; Jia et al. 2020; settings: in different herbal extracts and prescriptions; ref Guan et al. 2014; Cheruvu et al. 2018; Jia et al. 2020; cited from earlier work
[4] = male, Sprague-Dawley, rat, n = 6
[5] = male, Sprague-Dawley, rat, po, 9.6 g/kg, n = 6, read-out: Tmax

Structure (SMILES) | half-life [1, 4] [h] | AUC(0-t) ([1]; male, Sprague-Dawley, rat) [ng·h/mL] | Cmax ([1]; male, Sprague-Dawley, rat) [ng/mL] | MRT last ([1]; male, Sprague-Dawley, rat) [h] | MRT inf ([1]; male, Sprague-Dawley, rat) [h] | AUC(0-inf) ([1]; male, Sprague-Dawley, rat) [ng·h/mL] | Tmax ([1]; n = 6) [h] | Stability in rat plasma, Three freeze/thaw cycles, Measured ([2]; 1 ng/mL) [ng/mL] | Stability in rat plasma, Three freeze/thaw cycles, Measured ([2]; 10 ng/mL) [ng/mL] | Stability in rat plasma, Three freeze/thaw cycles, Measured ([2]; 200 ng/mL) [ng/mL] | Stability in rat plasma, Room temperature (4 h, 25 °C), Measured ([2]; 1 ng/mL) [ng/mL] | Stability in rat plasma, Room temperature (4 h, 25 °C), Measured ([2]; 10 ng/mL) [ng/mL] | Stability in rat plasma, Room temperature (4 h, 25 °C), Measured ([2]; 200 ng/mL) [ng/mL] | Stability in rat plasma, Autosampler (12 h, 4 °C), Measured ([2]; 1 ng/mL) [ng/mL] | Stability in rat plasma, Autosampler (12 h, 4 °C), Measured ([2]; 10 ng/mL) [ng/mL] | Stability in rat plasma, Autosampler (12 h, 4 °C), Measured ([2]; 200 ng/mL) [ng/mL] | Stability in rat plasma, Long term (7 day, –80 °C), Measured ([2]; 1 ng/mL) [ng/mL] | Stability in rat plasma, Long term (7 day, –80 °C), Measured ([2]; 10 ng/mL) [ng/mL] | Stability in rat plasma, Long term (7 day, –80 °C), Measured ([2]; 200 ng/mL) [ng/mL] | ROS generation induced by HG (HUVEC cells) | also measured
COc1ccc(-c2coc3cc(O)ccc3c2=O)cc1 [Formononetin] | 11.7 ± 2.09 | 40.8 ± 8.51 | 6.17 ± 1.65 | 10.7 ± 1.17 | 15.7 ± 1.9 | 46 ± 7.89 | 0.46 ± 0.29 | 1.0 ± 0.1 | 10.1 ± 1.0 | 206.3 ± 21.0 | 1.1 ± 0.1 | 11.8 ± 0.2 | 220.6 ± 3.5 | 1.2 ± 0.1 | 10.1 ± 0.2 | 222.6 ± 3.6 | 1.1 ± 0.1 | 10.2 ± 0.2 | 216.0 ± 4.3 | could alleviate the symptom of DR | Tmax ([1]; n = 6, listed as formononetin): ≤ 1 h
C/C=C1/[C@H](O[C@@H]2O[C@H](CO)[C@@H](O)[C@H](O)[C@H]2O)OC=C(C(=O)OC)[C@H]1CC(=O)OCCc1ccc(O)c(O)c1 [Oleuropein] | 3.36 | 1.03 ± 0.75 | 0.9 ± 0.82 | 1.53 ± 1.25 | 1.54 ± 1.25 | 1.03 ± 0.75 |  |  |  |  |  |  |  |  |  |  |  |  |  |  | Tmax [1, 5]: 1.37 ± 1.6 h; t1/2 ([1]; n = 6): rapid elimination; Stability in rat plasma, Three freeze/thaw cycles, Measured ([2]; 0.5 ng/mL): 0.5 ± 0.1 ng/mL; Stability in rat plasma, Three freeze/thaw cycles, Measured ([2]; 5 ng/mL): 5.1 ± 0.2 ng/mL; Stability in rat plasma, Three freeze/thaw cycles, Measured ([2]; 100 ng/mL): 103.6 ± 9.3 ng/mL; Stability in rat plasma, Room temperature (4 h, 25 °C), Measured ([2]; 0.5 ng/mL): 0.5 ± 0.1 ng/mL; Stability in rat plasma, Room temperature (4 h, 25 °C), Measured ([2]; 5 ng/mL): 4.3 ± 0.5 ng/mL; Stability in rat plasma, Room temperature (4 h, 25 °C), Measured ([2]; 100 ng/mL): 108.6 ± 7.8 ng/mL; Stability in rat plasma, Autosampler (12 h, 4 °C), Measured ([2]; 0.5 ng/mL): 0.4 ± 0.1 ng/mL; Stability in rat plasma, Autosampler (12 h, 4 °C), Measured ([2]; 5 ng/mL): 0.5 ± 0.0 ng/mL; Stability in rat plasma, Autosampler (12 h, 4 °C), Measured ([2]; 100 ng/mL): 93.4 ± 8.6 ng/mL; Stability in rat plasma, Long term (7 day, –80 °C), Measured ([2]; 0.5 ng/mL): 1.0 ± 0.0 ng/mL; Stability in rat plasma, Long term (7 day, –80 °C), Measured ([2]; 5 ng/mL): 4.9 ± 0.3 ng/mL; Stability in rat plasma, Long term (7 day, –80 °C), Measured ([2]; 100 ng/mL): 113.9 ± 9.9 ng/mL
O=c1cc(-c2ccc(O)c(O)c2)oc2cc(O)cc(O)c12 [Luteolin] | 11.1 ± 10.2 | 38.5 ± 7.61 | 3.27 ± 0.78 | 11.4 ± 1.23 | 18.2 ± 9.14 | 44 ± 4.19 |  | 1.1 ± 0.1 | 11.4 ± 0.8 | 218.0 ± 9.9 | 1.2 ± 0.1 | 11.3 ± 0.3 | 217.9 ± 11.7 | 1.1 ± 0.1 | 10.0 ± 0.2 | 205.6 ± 0.9 | 1.0 ± 0.1 | 10.4 ± 0.6 | 221.9 ± 6.8 | could alleviate the symptom of DR | Tmax [1, 5]: 1.71 ± 1.79 h; Tmax [3]: 0.50 to 2.83 h; t1/2 [3]: 3.63 to 12.10 h
C[C@@H]1O[C@@H](O[C@@H]2[C@@H](O)[C@H](OCCc3ccc(O)c(O)c3)O[C@H](CO)[C@H]2OC(=O)/C=C/c2ccc(O)c(O)c2)[C@H](O)[C@H](O)[C@H]1O [Verbascoside] | 2.08 ± 0.38 | 175 ± 40.8 | 45.5 ± 21.2 | 8.9 ± 3.44 | 8.91 ± 3.44 | 175 ± 40.8 | 0.25 ± 0.14 |  |  |  |  |  |  |  |  |  |  |  |  |  | Tmax ([1]; n = 6, listed as verbascoside): ≤ 1 h; t1/2 ([1]; n = 6, listed as verbascoside): rapid elimination; Stability in rat plasma, Three freeze/thaw cycles, Measured ([2]; 2 ng/mL): 2.0 ± 0.1 ng/mL; Stability in rat plasma, Three freeze/thaw cycles, Measured ([2]; 20 ng/mL): 21.8 ± 1.9 ng/mL; Stability in rat plasma, Three freeze/thaw cycles, Measured ([2]; 400 ng/mL): 416.4 ± 17.6 ng/mL; Stability in rat plasma, Room temperature (4 h, 25 °C), Measured ([2]; 2 ng/mL): 2.2 ± 0.1 ng/mL; Stability in rat plasma, Room temperature (4 h, 25 °C), Measured ([2]; 20 ng/mL): 19.6 ± 1.0 ng/mL; Stability in rat plasma, Room temperature (4 h, 25 °C), Measured ([2]; 400 ng/mL): 427.6 ± 13.8 ng/mL; Stability in rat plasma, Autosampler (12 h, 4 °C), Measured ([2]; 2 ng/mL): 2.1 ± 0.2 ng/mL; Stability in rat plasma, Autosampler (12 h, 4 °C), Measured ([2]; 20 ng/mL): 23.8 ± 1.8 ng/mL; Stability in rat plasma, Autosampler (12 h, 4 °C), Measured ([2]; 400 ng/mL): 402.4 ± 19.1 ng/mL; Stability in rat plasma, Long term (7 day, –80 °C), Measured ([2]; 2 ng/mL): 1.9 ± 0.2 ng/mL; Stability in rat plasma, Long term (7 day, –80 °C), Measured ([2]; 20 ng/mL): 21.3 ± 1.8 ng/mL; Stability in rat plasma, Long term (7 day, –80 °C), Measured ([2]; 400 ng/mL): 430.0 ± 6.2 ng/mL
